{
  "source": "paper PMC5518657",
  "about": "“Deacetylation of mycothiol-derived ‘waste product’ triggers the last biosynthetic steps of lincosamide antibiotics” (Chemical Science, 2015)",
  "target": "T1, LmbF (Streptomyces lincolnensis, UniProt A9Y8R7)",
  "T1 construct": "recombinant protein; details only in ESI",
  "T1 sequence (A9Y8R7 entry or part of it)": "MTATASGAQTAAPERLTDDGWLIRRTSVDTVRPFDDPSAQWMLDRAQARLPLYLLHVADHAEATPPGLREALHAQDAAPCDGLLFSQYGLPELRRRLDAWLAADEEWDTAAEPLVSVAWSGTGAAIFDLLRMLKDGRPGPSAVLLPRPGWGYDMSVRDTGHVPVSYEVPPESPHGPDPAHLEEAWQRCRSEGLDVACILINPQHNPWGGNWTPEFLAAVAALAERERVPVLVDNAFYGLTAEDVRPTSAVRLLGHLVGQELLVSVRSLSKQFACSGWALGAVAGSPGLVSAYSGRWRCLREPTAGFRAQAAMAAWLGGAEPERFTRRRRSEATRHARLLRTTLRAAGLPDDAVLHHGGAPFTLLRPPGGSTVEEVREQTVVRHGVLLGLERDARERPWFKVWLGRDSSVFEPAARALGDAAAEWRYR",
  "assay": "in vitro turnover of […] with and without PLP, LC-MS",
  "assay_type": "biochemical",
  "settings": "no turnover without PLP; covalent binding to the substrate amino group is proposed",
  "data": [
    {"smiles": "Cc1ncc(COP(=O)(O)O)c(C=O)c1O", "note": "[pyridoxal-5′-phosphate]", "values": [
      {"measurement": "in vitro turnover of 479 with and without PLP, LC-MS", "value": "LmbF failed to carry out this reaction in the absence of PLP"}
    ]}
  ]
}
